# Measured values taken from patent US20100203110A1, “Therapeutics for Cancer Using 3-Bromopyruvate and Other Selective Inhibitors of ATP Production” (The Johns Hopkins University, priority 2006, published 2010).
# Legend:
# HepG2 = experiment: Caspase-3 activity, HepG2; assay type: cell-based, human; conditions: 1 mM for 3 hour
# Description: Caspase-3 activity and reduced cell viability was also measured in cell lines (HepG2, THLE-2, and VX2 cell lines) following 3-bromopyruvate treatment (1 mM for 3 hour) (FIG. 6A). Caspase-3 activity increased in each cell line following treatment and cell viability decreased following treatment. An increase in caspase-3 activity indicated the mechanism of cell death is apoptotic. FIGS. 6 B and C show cell viability is reduced in each cell line with increasing 3-bromopyruvate concentration after 1 and 3 hours of treatment.
# [1] = system: mitochondrial hexokinase of the VX2 tumor; experiment: Hexokinase activity assay coupled to glucose-6-phosphate dehydrogenase; assay type: biochemical, rabbit; conditions: VX2 tumor mitochondria, cell free
# Description: The freshly isolated liver or VX2 tumor tissues (15-20 g wet weight) was rinsed in 3 volumes of H-medium (210 mM D-mannitol, 70 mM sucrose, 2 mM Hepes, and 0.05% bovine albumin, pH 7.4) at 4° C. and minced with a razor blade as finely as possible. A 30% (V/V) suspension was made using ice-cold H-medium in a Potter-Elvehjem glass homogenizer (55 ml capacity), and homogenization was achieved by applying 4 complete up and down strokes through the suspension with a rotating (˜400 rpm), serrated, teflon pestle attached to a motor. To remove cell debris and nuclei, the resultant homogenate was diluted to twice the initial volume and centrifuged at 630×g for 8 minutes at 4° C. in a Sorvall RC-2B centrifuge using a GSA rotor. The supernatant was removed and then centrifuged at 6,800 g for 15 min under the same conditions. The resultant supernatant was saved and referred to here as the cytosolic faction. The pellet was resuspended in the initial volume of H-medium and centrifuged twice at 9,800×g for 15 min at 4° C. The washed pellet represents the mitochondrial fraction.
# The assay coupled the glucose-6-phosphate formed in the hexokinase reaction to the glucose-6-phosphate dehydrogenase reaction. Here, NADP+, oxidizes glucose-6-phosphate to a g-lactone while becoming reduced to NADPH, thus allowing the formation of the latter to be monitored spectrophotometrically at 340 nm. […]
# VX2 rabbit liver tumors = experiment: Intraarterial dose and infusion modality optimisation in VX2 liver cancer; assay type: in vivo
# Description: In a therapeutic dose study, 25 ml of 2.5 and 5 mM 3-BrPA were injected as a single intraarterial bolus over two minutes. Although these doses (2.5 and 5 mM) were 0.5 and 1 log higher than the 0.5 mM dose previously investigated, these doses were well within the IV therapeutic dose established in rats and rabbits.
# Since patients with HCC also suffer from underlying liver disease such as cirrhosis and hepatitis, an important translational consideration for therapy is the absolute necessity to protect and preserve healthy liver parenchyma. To lessen the degree of liver toxicity, different temporal modalities of intraarterial injection were tested. One possibility was that such a large volume, delivered within the short time of 2 minutes may have added physical and chemical toxic effects on the liver. Thus, a 1-hour continuous infusion and a serial infusion of 2 boluses administered an hour apart were compared against the original single bolus dose. The volume of 25 mL and the concentration of 2.5 mM 3-bromopyruvate were kept constant. […] In each of these experiments, rabbits were sacrificed 48 hours after treatment and representative sections obtained of tumor and normal tissues (7 slides/sample). The samples were subjected to histopathological analysis to determine percentage tumor cell death and damage to the surrounding normal liver tissue. This was then confirmed with the TUNEL assay (FIG. 7) and Ki-67 immunohistochemistry. […] The prolonged slow infusion eliminated most, if not all, of the unwanted damage to the normal liver enabling the use of a much higher dose of 3-bromopyruvate to ensure complete destruction of the tumor.
# Having determined that prolonged intraarterial infusion of 3-bromopyruvate was the optimal method of administration, a dose-response analysis was conducted. In part, this dose-response analysis was prompted by the persistent toxicity to healthy liver encountered at 2.5 mM. The objective was to optimize the 1-hour infusion in order to achieve complete tumor eradication without any toxicity to the normal liver parenchyma. Rabbits were intraarterially infused over 1-hour with doses ranging between 0.5 and 2.5 mM in 0.25 mM increments. The rabbits were fasted 24 hours prior to treatment and euthanized 48 hours after treatment. […] This total destruction was identified by histopathology (H&E) and confirmed by the TUNEL assay (FIG. 7). […] One possible explanation for this finding may be that 3-bromopyruvate at higher doses may have other cellular and chemical functions that are much more toxic to the normal liver parenchyma therein impeding the delivery of 3-bromopyruvate exclusively to the tumor. Thus, the healthy liver's ability to metabolize 3-bromopyruvate was optimal at the concentration of 1.75 mM.
# To further explore use of the continuous infusion method of delivery, the effect of a 2-hour continuous infusion of 50 mL 1.75 mM 3-BrPA was tested.
# VX2 tumor = experiment: FDG uptake in orthotopic rabbit model of liver cancer, IA versus IV; assay type: in vivo
# Description: To develop a new therapeutic strategy to cure patients with hepatocellular carcinoma, a similar series of experiments was conducted on the orthotopic rabbit model of liver cancer (VX2). The effects of 3-bromopyruvate injected intraarterially (IA) was compared to those of 3-bromopyruvate injected intravenously (N) on FDG uptake in the VX2 tumor. The optimal dose of 3-bromopyruvate for both IA and N administration was then determined through an extensive dose-response analysis. In the IA group, 3-bromopyruvate was infused over one hour, FDG injected at the 30-minute mark and all animals were then sacrificed one hour after the FDG injection. Tumors and all major organs were removed, weighed and analyzed in a gamma counter.
# [2] = 25 ml 5 mM, single IA bolus over two minutes
# [3] = IA group, infused over one hour
compound,measurement,setting,value
O=C(O)C(=O)CBr [3-bromopyruvate],Caspase-3 activity,HepG2,increased
same,concentration for complete inhibition of hexokinase activity,[1],5 mM
same,major organ toxicity,VX2 rabbit liver tumors; 1-hour intraarterial infusion of 25 mL of 1.75 mM,without any evidence of major organ toxicity
same,tumor kill and liver toxicity versus 1-hour infusion,VX2 rabbit liver tumors; 2-hour continuous infusion of 50 mL 1.75 mM,no significant difference
same,damage to the normal liver,"VX2 rabbit liver tumors; 25 mL 1.75 mM, 1-hour IA infusion",without any damage
same,tumor cell destruction,"VX2 rabbit liver tumors; 25 mL 1.75 mM, 1-hour IA infusion, 48 hours, H&E and TUNEL",100%
same,liver toxicity versus single bolus and 2 serial boluses,"VX2 rabbit liver tumors; 25 mL 2.5 mM, 1-hour continuous IA infusion, 48 hours",considerably less
same,surrounding healthy liver,"VX2 rabbit liver tumors; 25 ml 2.5 mM, single IA bolus",large areas of necrosis and fatty changes
same,survival after treatment,"VX2 rabbit liver tumors; 25 ml 2.5 mM, single IA bolus",barely able to survive for more than 48 hours
same,tumor destruction,"VX2 rabbit liver tumors; 25 ml 2.5 mM, single IA bolus over two minutes",complete tumor destruction
same,mortality,"VX2 rabbit liver tumors; 25 ml 5 mM, single IA bolus",death of all the rabbits
same,"other major organs, histopathology at necropsy","VX2 rabbit liver tumors; 25 ml 5 mM, single IA bolus",completely uneffected
same,surrounding healthy liver,VX2 rabbit liver tumors; [2],widespread necrosis
same,tumor destruction,VX2 rabbit liver tumors; [2],completely destroyed the tumor
same,toxicity to the healthy liver tissue,"VX2 rabbit liver tumors; doses higher than 1.75 mM, 1-hour IA infusion",increased toxicity
same,FDG uptake in any other organs,VX2 tumor; [3],No difference in uptake
same,reduction of FDG uptake in the tumor,VX2 tumor; [3],80%
same,FDG uptake in other organs,VX2 tumor; N (intravenous) group,"decreases in FDG uptake were also recorded in the lung, brain and liver"
same,decrease of FDG uptake in the tumor,VX2 tumor; N (intravenous) group,30%
